Patent publication US11420910B2, “Methods for low temperature fluorine-18 radiolabeling of biomolecules” (KATHOLIEKE UNIVERSITEIT LEUVEN, priority 2014, dated 2022)
Entries after “also recorded” stand apart in the source; their conditions may differ.

Key:
[1] = Stability test on the semi-automated [Al18F]-L3 batch at room temperature; format: physicochemical; details: incubation at room temperature for 2 hours
Protocol: To assess the efficiency of the labeling agent in a more realistic setting, the process for radiosynthesis and purification of [Al^18F]-L3 was performed semi-automatically. [^18F]fluoride was produced and trapped on a SepPak™ Light Accel plus QMA anion as described previously. The [^18F]F^− was eluted from the cartridge with an aqueous solution of sodium chloride 0.9% (0.2 mL) and added to 22.5 μl of 20 mM aluminum chloride (AlCl3) in sodium acetate buffer (0.1 M, pH 4). The solution was incubated at RT for 10 min to form {Al^18F}^2+. A solution of H3L3 (0.5 mL, 1.5 mM) was added and the reactor was heated at 40° C. for 12 min. After dilution with water (0.5 mL), the crude reaction mixture was injected onto a semi-preparative HPLC column (XBridge C18, 5 μm, 4.6 mm×150 mm, Waters) eluted with EtOH: sodium acetate 0.05M pH 5.5, 8:92 (v/v) at a flow rate of 1 mL/min. UV detection of the eluate was performed at 254 nm. Identification of the [Al^18F]-L3 complex was done by radio-LC-HRMS (Acquity UPLC BEH C18, 1.7 μm, 2.1 mm×150 mm, Waters. 0.6 mL/min A: H2O B: ACN, 0-2 min 5% B, 2 to 8 min 5% B to 95% B, 8-10 min 95% B, 10 to 12 min 95% B to 5% B).
H3L3 was labeled with {Al^18F}^2+ in a non-optimized yield of 74% (12 min 40° C., pH 4). The batch (4.63 GBq) was produced with a RCP higher than 98% in 35 min starting after elution of fluorine-18. […]

[2] = Stability tests of Al18F-complexes in different buffers ranging from pH 2 to 8 (room temperature, iTLC-SG); format: physicochemical; details: for RCP: after 60 min
Protocol: (§1) 200 μl of the purified Al^18F-L3 solution was added to 1 mL of sodium phosphate buffer (0.1 M, pH 2), sodium phosphate buffer (0.1 M, pH 3), sodium acetate buffer (0.1 M, pH 4), sodium acetate buffer (0.1 M, pH 5), sodium acetate buffer (0.1 M, pH 6), PBS buffer (0.1 M, pH 7) or Tris-HCl buffer (0.1 M, pH 8). These mixtures were incubated at room temperature and analyzed by iTLC-SG at 30 and 60 min after the start of the incubation.
as §1, with “Al^18F-L26” for “Al^18F-L3”

[3] = Stability tests of Al18F-complexes in PBS (0.1 M, pH 7) at 37° C., Example 26; format: physicochemical; details: PBS 0.1 M pH 7, 37° C.
Protocol: (§2) 400 μl of each purified [Al^18F]-complex solution was added to 1 mL of PBS and/or 1 mL of rat serum. […] Finally the supernatant was analysed using iTLC-SG.

[4] = Stability tests of Al18F-complexes in rat serum at 37° C., Example 26; format: in vitro ADME
Protocol: as §2

[5] = Biodistribution of Al18F-complexes and {Al18F}2+ in healthy male NMRI mice; format: in vivo; details: for uptake in blood / uptake in bone / uptake in intestines / uptake in kidneys / uptake in liver / uptake in urinary bladder: NMRI mice, tail vein
Protocol: (§3) Quantification of radioactivity during biodistribution studies was performed using an automated gamma counter equipped with a 3-inch NaI(TI) well crystal coupled to a multichannel analyzer, mounted in a sample changer (Perkin Elmer 1480 Wizard 3q). Counts were corrected for background radiation, physical decay and counter dead time.
(§4) The biodistribution of the [Al^18F]-L3 complex and {Al^18F}^2+ was determined in healthy male Naval Medical Research Institute (NMRI) mice (body weight: 30-40 g) at 10 and 60 min post injection (p.i.) (n=4/time point). Mice were injected with the [Al^18F]-L3 complex (about 1 MBq) or {Al^18F}^2+ (5.55 MBq) via a tail vein under anesthesia (2.5% isoflurane in O2 at 1 L/min flow rate) and sacrificed by decapitation at above specified time points. Blood and major organs were collected in tared tubes and weighed. The radioactivity in blood, organs and other body parts was counted using an automated γ-counter. For the calculation of total radioactivity in blood, bone and muscle, masses were assumed to be, respectively, 7, 12 and 40% of the total body mass.^20, 21
as §3, with “Nai(TI)” for “NaI(TI)”
as §4, with “[Al^18F]-L26” for “[Al^18F]-L3”, “(n=3/time point for 10 min p.i. and n=4/time point for 60 min p.i.).” for “(n=4/time point).”, “mass.^20,21” for “mass.^20, 21”

## O=C1CN(Cc2ccccc2)CCN2CC(=O)[O][Al-]([18F])([O]1)[O]c1ccccc1C2 (stereo not drawn) [Al^18F-L3]
[1]
  [Al18F]-L3 still intact: more than 95%
[2]; buffers pH 2 to 8, room temperature, 30 and 60 min
  stability at different pH (in words): not stable at pH 2, pH 3 and pH 4; also recorded: stable for at least 60 min in the pH range from 5 to 8
[2]; sodium acetate buffer 0.1 M pH 4, room temperature
  RCP: 75%
[2]; sodium phosphate buffer 0.1 M pH 2, room temperature
  RCP: 58%
[2]; sodium phosphate buffer 0.1 M pH 3, room temperature
  RCP: 68%
[3]
  stability in PBS (in words): comparable to that of Al^18F-NODA-benzyl up to 60 minutes; also recorded: stability comparable to that of the previously reported Al^18F-NODA
[3]; 120 min
  RCP: 80%
[3]; 240 min
  RCP: 70%
[4]
  stability in rat serum (in words): good stability in rat serum; also recorded: stability comparable to that of the previously reported Al^18F-NODA
[4]; 240 min
  RCP: 66%
[5]; 10 min p.i.
  uptake in blood: 1.1 % ID
  uptake in bone: 1.6 % ID
  uptake in intestines: 25.17 % ID
  uptake in kidneys: 2.2 % ID
  uptake in liver: 47.83 % ID
  uptake in urinary bladder: 13.2 % ID
[5]; 60 min p.i.
  uptake in blood: 0.3 % ID
  uptake in bone: 2.5 % ID
  uptake in intestines: 59.48 % ID
  uptake in kidneys: 1.0 % ID
  uptake in liver: 13.53 % ID
  uptake in urinary bladder: 17.8 % ID
[5]; mice, 60 min p.i.
  route of clearance (in words): hepatobiliary clearance
[5]; mice, biodistribution
  in vivo stability judged from bone uptake (in words): high stability
